The record followed here is patent US4975445A, “Substituted cyclohexenes as central nervous system agents” (priority 1989, dated 1990).

Where two headings read alike, the source gives them in different places.

The test system of experiment [1] is mice. Nature of the experiment: Inhibition of locomotor activity in mice (McLean et al.). To be noted: Mus musculus, read-out: Inhibition of Locomotor Activity in Mice ED50. The class given is in vivo. As for the experimental part: (§1) The compounds of Formula I are valuable dopaminergic agents. […] Thus, the compounds of Formula I were tested for their ability to inhibit locomotor activity in mice according to the assay described by J. R. McLean, et al, Pharmacoloqy, Biochemistry and Behavior, Volume 8, pages 97-99 (1978); for their ability to inhibit [^3 H]-spiroperidol binding in a receptor assay described by D. Grigoriadis and P. Seeman, Journal of Neurochemistry, Volume 44, Pages 1925-1935 (1985); and for their ability to inhibit dopamine synthesis in rats according to the protocol described by J. R. Walters and R. H. Roth, Naunyn-Schmiedeberg's Archives of Pharmacology, Volume 296, pages 5-14 (1976). The above test methods are incorporated herein by reference. The data in the table show the dopaminergic activity of representative compounds of Formula I. Additionally, compounds of Formula I are ligands for the sigma opiate binding site. The data in the table show the inhibition of [^3 H]DTG ([…], a sigma ligand) binding by representative compounds of Formula I, according to the method of E. Weber, et al. Proceedings of the National Academy of Sciences, USA, Volume 83, Pages 8784-8788 (1986).

Experiment [2] has as its target [^3 H]-Spiroperidol binding (receptor). Nature of the experiment: Inhibition of [3H]-spiroperidol binding (receptor assay, Grigoriadis and Seeman). As for the experimental part:
as §1

The subject of experiment [3] is Brain Striatal Dopamine Synthesis. Nature of the experiment: Inhibition of brain striatal dopamine synthesis in rats (Walters and Roth). The class given is in vivo. Conditions: Rattus norvegicus, IP, read-out: Effects on Brain Striatal Dopamine Synthesis in Rats, inhibition. The protocol: as §1
Experiment [4] has as its target sigma opiate binding site. Nature of the experiment: Inhibition of [3H]DTG (ditoluoylguanidine) binding (Weber et al.). As for the experimental part: as §1

What is called ED50 is the midpoint of the dose-response relation. Usually IC50 stands for the concentration needed to halve the response being measured. A lower IC50 goes with inhibition by little substance. On to `C1=C(c2ccccc2)CCN(C2CC=C(c3ccccn3)CC2)C1` (racemic) [Example 3, (±)-2-[4-(3,6-Dihydro-4-phenyl-1(2H)-pyridinyl)-1-cyclohexen-1-yl]pyridine], for which, in experiment [1] (ip), the ED50 worked out at 2 mg/kg. Moreover, in experiment [2], the IC50 came out at 296 nM.
For `C1=C(c2ccccc2)CCC(N2CCN(c3ccccn3)CC2)C1` (racemic) [Example 2a, (±)-1-(4-Phenyl-3-cyclohexen-1-yl)-4-(2-pyridinyl)piperazine], the median effective dose (ED50) in experiment [1] (mice, IP) is 1 mg/kg. In experiment [2], this molecule displayed an IC50 of 599 nM.
Broadly, the inhibition is the change of the read-out against control, counted positive when it falls. As to `C1=C(c2ccccn2)CCC(N2CCN(c3ccccn3)CC2)C1` (racemic) [Example 1a, (±)-1-(2-Pyridinyl)-4-[4-(2-pyridinyl)-3-cyclohexen-1-yl]-piperazine], the ED50 in experiment [1] (mice, IP) was 0.9 mg/kg. In addition, in experiment [3], the inhibition at 10 mg/kg was 75%. Also, the IC50 in experiment [2] worked out at 1180 nM.
`C1=C(c2cccs2)CCC(CN2CCN(c3ccccn3)CC2)C1` (racemic) [Example 2b, (±)-1-(2-Pyridinyl)-4-[[4-(2-thienyl)-3-cyclohexen-1-yl]methyl]-piperazine]: the ED50 in experiment [1] (mice, IP) was less than 30 mg/kg. The IC50 in experiment [2] is 2430 nM.
As for `Fc1ccc(C2=CCC(CCN3CCN(c4ccccn4)CC3)CC2)cc1` (racemic) [Example 2e, (±)-1-[2-[4-(4-Fluorophenyl)-3-cyclohexen-1-yl]ethyl]-4-(2-pyridinyl)piperazine], the ED50 in experiment [1] (mice, IP) was 2.9 mg/kg. The inhibition at 10 mg/kg in experiment [3] came out at 23%. Further, the values for the IC50 in experiment [2] and in experiment [4] were 365 nM and 20 nM, respectively.
In the case of `C1=C(c2ccccn2)CCC(CCN2CCN(c3ccccn3)CC2)C1` (racemic) [Example 1b, (±)-1-(2-Pyridinyl)-4-[2-[4-(2-pyridinyl)-3-cyclohexen-1-yl]ethyl]piperazine], the ED50 in experiment [1] (mice, IP) came out at 0.4 mg/kg. The IC50 in experiment [2] was found to be 128 nM; in experiment [4], 39 nM.
`C1=C(c2nccs2)CCC(CCN2CCN(c3ccccn3)CC2)C1` (racemic) [Example 2f, (±)-1-(2-Pyridinyl)-4-[2-[4-(2-thiazolyl)-3-cyclohexen1-yl]-ethyl]piperazine]: in experiment [1] (mice, IP), the ED50 turned out to be 0.8 mg/kg. In addition, in experiment [3], the inhibition at 10 mg/kg worked out at 77%. The 50% inhibitory concentration (IC50) in experiment [2] came out at 267 nM; in experiment [4], 98 nM.
Turning to `C1=C(c2ccccc2)CCC(CCN2CCN(c3ccccn3)CC2)C1` (racemic) [Example 2d, (±)-1-[2-(4-Phenyl-3-cyclohexen-1-yl)ethyl]-4-(2-pyridinyl)piperazine], in experiment [1] (mice, IP), the ED50 was found to be 1.9 mg/kg. Also, in experiment [3], the inhibition at 10 mg/kg was determined as 48%. Further, the IC50 in experiment [2] stood at 409 nM; in experiment [4], 23 nM.
As for `C1=C(c2cccnc2)CCC(N2CCN(c3ccccn3)CC2)C1` (racemic) [Example 1, (±)-1-(2-Pyridinyl)-4-[4-(3-pyridinyl)-3-cyclohexen-1-yl]piperazine], in experiment [1] (mice, IP), the ED50 is 0.1 mg/kg. Further, in experiment [3], the inhibition at 10 mg/kg was 100%. This molecule displayed an IC50 in experiment [2] of 188 nM.
Take `C1=C(c2cccs2)CCC(CCN2CCN(c3ccccn3)CC2)C1` (racemic) [Example 2c, (±)-1-(2-Pyridinyl)-4-[2-[4-(2-thienyl)-3-cyclohexen-1-yl]ethyl]-piperazine]: in experiment [1] (mice, IP), the ED50 is 8.4 mg/kg. Besides, the inhibition at 10 mg/kg in experiment [3] is 46%. In addition, the IC50 in experiment [4] is 39 nM.
Take `C1=C(c2cccs2)CCC(N2CCN(c3ccccn3)CC2)C1` (racemic) [Example 2, (±)-1-(2-Pyridinyl)-4-[4-(2-thienyl)-3-cyclohexen-1-yl]-piperazine]: the ED50 in experiment [1] (mice, IP) amounted to 9.3 mg/kg. Moreover, the IC50 in experiment [2] amounted to 352 nM.
In the case of `C1=C(c2ccccc2)CCN(CCC2CC=C(c3cccs3)CC2)C1` (racemic) [Example 2g, (±)-1,2,3,6-Tetrahydro-4-phenyl-1-[2-[4-(2-thienyl)-3-cyclohexen-1-yl]ethyl]pyridine], the ED50 in experiment [1] (ip) was 3 mg/kg. Moreover, the IC50 in experiment [2] worked out at 32 nM; in experiment [4], 2 nM.
